Data taken from US20100331336A1, “PROTECTIVE EFFECT OF HIGH DOSE FOLATE ON MYCARDIAL ISCHEMIA” (Universiteit Antwerpen, priority 2008, published 2010).

How the values were obtained:
myocardial superoxide = assay: Myocardial superoxide by lucigenin-enhanced chemiluminescence; assay type: in vivo, rat; conditions: for decline of O2^− generation on pre-incubation of extracts: 100 μM BH4
Description: (§1) Adult Wistar rats received FA (10 mg/day unless otherwise stated) or placebo by oral gavage for 7-days prior to performing the ischemia/reperfusion (IR) experiment. A total of 131 rats were used, the sample size reflecting the requirement for multiple assays that could not be performed in each animal, but were rather obtained in different subsets of the total group. Animals were anesthetized (pentobarbital 60 mg/kg), intubated via tracheotomy, and ventilated (Harvard Apparatus, Mass.). ECG was monitored and temperature maintained at 37.5° C. The left anterior artery was exposed through the 4-5th intercostal space and a suture placed around it, and transient coronary artery ligation performed for 30 min with (n=85) or without (n=46) 90 min reperfusion. In one subgroup of reperfused animals (n=9), FA was provided 10 minutes after the onset of LAD occlusion (i.e. 20 minutes before the onset of reperfusion), delivered as an IV-bolus.
(§2) Superoxide was assessed by lucigenin (5 μM)-enhanced chemiluminescence (Beckman LS60001C, n=23)^22 and fluorescent microtopography (dichlorodihydro-fluorescein diacetate, DCF, n=16) and dihydroethidium, DHE, n=24) (Gupte et al., 2005). The direct anti-oxidants effects of folic acid were analysed using an in vitro xanthine/xanthine oxidase system (Antoniades et al., 2006) and compared with Tempol.

[1] = test system: isolated hearts of adult Wistar rats; assay: Coronary flow and vasodilator response in isolated hearts; parameters: species or system rat
Description: (§3) Adult Wistar rats (n=28) were anesthetized (pentobarbital 60 mg/kg), and hearts rapidly excised and mounted onto a retrograde perfusion system (Emka, Paris, France) using warmed, oxygenated buffered Krebs-Henseleit solution at constant perfusion pressure (75 mmHg). Hearts were paced at 300 bpm, and maintained in an unloaded state. Coronary flow was measured by an in-line ultrasonic flow probe (Transonic Systems, Ithaca, N.Y., USA). After 30 min equilibration, vasodilators drugs (bradykinin and sodium nitroprusside) were infused by bolus injection (50 μl, 10^−8-10^−5.5 M i.c.) and coronary flow reserve assessed at constant perfusion pressure. After re-establishing baseline, hearts received FA (4.5 10^−6M i.c.) or vehicle for 30 min. Afterwards the hearts were subjected to 40-min zero coronary flow followed by 40 min of reperfusion. Coronary effluent was collected, concentrated (Sartorius-Sipan, Lier, Belgium) and analysed for lactate dehydrogenase (Vitros 950AT, O. C. D., Beerse, Belgium). Coronary vasodilator responses to the same two agents were repeated following reperfusion.

[2] = test system: Adult Wistar rats, coronary artery ligation; assay: In vivo ischemia/reperfusion model, pressure-volume loop hemodynamics; parameters: species or system rat; conditions: FA 10 mg/d oral pre-treatment 7 days; 30 min LAD occlusion
Description: as §1
(§4) LV function was assessed in vivo by pressure-volume loops (n=14) during both ischemia and following reperfusion. […] Open chest myocardial anterior wall motion was also measured using a Sequoia—Acuson C256 equipped with 15 MHz linear transducer (Sequoia C256 Echocardiography System, Acuson Corporation, Mountain View, Calif.) at the parasternal view of the left ventricle chamber as described.

[3] = test system: Adult Wistar rats, coronary artery ligation; assay: Regional myocardial blood flow by microspheres; assay type: in vivo, rat; conditions: FA pre-treatment
Description: as §1
Regional myocardial blood flow was assessed (n=12) by nuclear-activated microspheres ([…], BioPal, Worcester, MA) injected in the left atrium (0.3 ml of 2.5*10^6 spheres/ml) at baseline and after 5 and 30 min of ischemia (Reinhardt et al., 2001). Total counts per minute (cpm) were normalized to weight and results from the ischemic zone normalized to the remote region to provide relative blood flow before and during ischemia.

[4] = test system: isolated hearts of adult Wistar rats; assay: In vitro IR model, isolated perfused hearts: infarct size and LDH; parameters: species or system rat
Description: as §3
(§5) Infarct size was assessed in 31 rats, with area at risk (AAR) determined by negative staining with Evans blue injected during coronary occlusion, and subsequent staining with TTC to detect myocardial necrosis. LV (free wall+whole septum), AAR (neg Evan's Blue) and area of necrosis (TTC-white) were measured by planimetry (Soft Imaging system GmbH, Analysis pro version 3.00), and digitized images subjected to equivalent background subtraction, brightness, and contrast enhancement for improved clarity and sharpness. For in vitro studies, TTC staining was not preceded by Evans' blue staining because global ischemia was created. Contraction band necrosis was assessed in vivo rat hearts (n=22) fixed in Carnoy solution and stained with Masson's trichrome. Serial adjacent fields were examined throughout the full LV to calculate the percent myocardium with contraction bands present. Similar analysis was performed for TUNEL-positivity (Chemicon Intern, Temecula, Calif.), also expressed as percent LV area.

[5] = test system: Adult Wistar rats, coronary artery ligation; assay: Ischemia and reperfusion arrhythmia, in vivo IR; parameters: species or system rat
Description: as §1

[6] = test system: Adult Wistar rats, coronary artery ligation; assay: HPLC analysis of high energy phosphate metabolism in anterior wall samples; assay type: in vivo, rat; conditions: FA pre-treatment; 30 min ischemia, versus controls
Description: as §1, with “In one subgroup of reperfused animals (n=9), FA was provided 10 minutes after the onset of LAD occlusion (i.e. 20 minutes before the onset of reperfusion), delivered as an IV-bolus.” left out
Snap frozen samples (n=24) from the anterior wall (±FA pre-treatment; ±30 min ischemia, no reperfusion) were de-proteinized and subjected to HPLC analysis of water-soluble low-molecular weight compounds reflecting tissue oxid-oreductive and energy status. High-energy phosphates, oxypurines (hypoxanthine, xanthine, and uric acid), nucleosides (inosine and adenosine), malondialdehyde, and reduced and oxidized glutathione were measured by ion-pairing HPLC as described (Takimoto et al., 2005).

serum homocysteine = conditions: achievable with 0.8 mg/d; cited from earlier work
[7] = test system: superoxide generated by xanthine/xanthine oxidase; assay: In vitro xanthine/xanthine oxidase O2− generating system; assay type: biochemical; conditions: lucigenin-enhanced chemiluminescence, FIG. 5F
Description: as §2

eNOS = eNOS monomer/dimer formation and NOS enzymatic activity in IR tissue; assay type: in vivo, rat
Description: as §1
SDS-resistant eNOS dimers and monomers were assayed on ischemia/reperfusion-tissue (n=16) using low temperature SDS-PAGE as previously described (Takimoto. et al., 2005) NOS enzymatic activity was assessed by arginine to citrulline conversion assay from extracts obtained from frozen myocardium (n=15) (Takimoto. et al., 2005).

[8] = test system: Adult Wistar rats, coronary artery ligation; assay: Open chest echocardiography during LAD occlusion; assay type: in vivo, rat; conditions: FA pre-treatment; at 30 min ischemia
Description: as §1, §4

[9] = test system: Adult Wistar rats, coronary artery ligation; assay: Infarct size analysis and histology, in vivo IR; parameters: species or system rat
Description: as §1, §5

[10] = FA 10 mg i.v. after 10 min of coronary occlusion

C[C@H](O)[C@H](O)[C@H]1CNc2nc(N)[nH]c(=O)c2N1 [BH4, tetrahydrobiopterin]
decline of O2^− generation on pre-incubation of extracts (myocardial superoxide; extracts of FA pre-treated hearts): 52.1±11.3%
decline of O2^− generation on pre-incubation of extracts (myocardial superoxide; extracts of vehicle treated IR hearts): 90.9±0.7%

Nc1nc2ncc(CNc3ccc(C(=O)N[C@@H](CCC(=O)O)C(=O)O)cc3)nc2c(=O)[nH]1 [FA, folic acid]
Bradykinin induced maximal rise in coronary flow ([1]; after IR, hearts pre-treated with FA): 122.0±11.3%
coronary flow after ischemia ([1]; isolated hearts): 8.9 ± 1.4 mL/min
coronary flow at baseline ([1]; isolated hearts): 11.4 ± 13.8 mL/min
Peak LV pressure (systolic blood pressure) change with LAD occlusion [2]: changed little
decline of myocardial superoxide (lucigenin chemiluminescence) (myocardial superoxide; FA pre-treated animals, during ischemia and after 90 minutes reperfusion): ~50%
ratio of ischemic/remote zone myocardial perfusion, decline ([3]; after 5 min of LAD ligation): −77.7±5.1%
flow compared to the remote region ([3]; at 30 minutes of ischemia): −78.4±9.3%
infarct size in isolated hearts ([4]; FA 4.5 10^−6M i.c. 30 min, 40 min zero flow, 40 min reperfusion): 7.7±2.8%
reduction of myocardial necrosis in hearts studied in vitro ([4]; FA pre-treatment, FIG. 4D): ~80%
lactate dehydrogenase in the coronary effluent ([4]; FA pre-treatment, after ischemia-reperfusion): less lactate dehydrogenase
reperfusion arrhythmia occurrence ([5]; FA treated): no FA treated animal
lethal ventricular arrhythmia triggered by ischemia, % of rats ([5]; FA-treated): 8.3%
myocardial ATP and ADP during ischemia [6]: maintained at higher levels
decrease in serum homocysteine (serum homocysteine): 3 µmol/L
direct anti-oxidant effect [7]: substantial anti-oxidant effects
eNOS ratio of dimer/monomer (eNOS; FA-pre-treated IR hearts): near normal
NOS activity, arginine-citrulline conversion (eNOS; treated vs. non-treated hearts, p=0.08): not significant improved
Ejection fraction [8]: 72.8±1.2%
anterior-septal thickening [8]: 37.±5.3%
TUNEL staining, % LV [9, 10]: 4.3±1.3 % LV
area at risk (AAR) [9, 10]: 52.4±5.5%
contraction band necrosis, % LV [9, 10]: 5.1±0.7 % LV
infarct size relative to AAR ([9]; FA 10 mg i.v. after 10 min of coronary occlusion, n=5): 3.0±2.2%
infarct size, % area at risk ([9]; oral FA 10 mg/d pre-treatment 7 days, 30 min ischemia, 90 min reperfusion): 3.8±1.2%
Reperfusion contraction band necrosis, % of the LV ([9]; oral FA pre-treatment, IR): 4.6%±1.2
TUNEL-positive myocytes, % of LV fields ([9]; oral FA pre-treatment, IR): 4.3±1.3%
infarct size with lower doses ([9]; pre-treatment by 40% and 10% of the principal FA dose (1 and 4 mg/d)): decline in infarct size occurred
